Peptide text beside a SMILES is read from it. * marks the point of attachment. X1 = CC1(C)S[C@@H]2[C@H](NC(=O)C*)C(=O)N2[C@H]1C(=O)O; Carboxymethyl = O=C(O)C*
What was measured:
[1] = molecular target: translation complex A site; conditions: ribosome; cited from earlier work
PBP2a [2] = molecular target: T1, PBP2a (Staphylococcus aureus, UniProt P07944); experiment: Relative IC50 competition assay of peptide penicillanate conjugates against PBP2a (biotinylated ampicillin); format: binding; set-up: This part was cleaved off with DTT before the test
T1 sequence (P07944 whole entry): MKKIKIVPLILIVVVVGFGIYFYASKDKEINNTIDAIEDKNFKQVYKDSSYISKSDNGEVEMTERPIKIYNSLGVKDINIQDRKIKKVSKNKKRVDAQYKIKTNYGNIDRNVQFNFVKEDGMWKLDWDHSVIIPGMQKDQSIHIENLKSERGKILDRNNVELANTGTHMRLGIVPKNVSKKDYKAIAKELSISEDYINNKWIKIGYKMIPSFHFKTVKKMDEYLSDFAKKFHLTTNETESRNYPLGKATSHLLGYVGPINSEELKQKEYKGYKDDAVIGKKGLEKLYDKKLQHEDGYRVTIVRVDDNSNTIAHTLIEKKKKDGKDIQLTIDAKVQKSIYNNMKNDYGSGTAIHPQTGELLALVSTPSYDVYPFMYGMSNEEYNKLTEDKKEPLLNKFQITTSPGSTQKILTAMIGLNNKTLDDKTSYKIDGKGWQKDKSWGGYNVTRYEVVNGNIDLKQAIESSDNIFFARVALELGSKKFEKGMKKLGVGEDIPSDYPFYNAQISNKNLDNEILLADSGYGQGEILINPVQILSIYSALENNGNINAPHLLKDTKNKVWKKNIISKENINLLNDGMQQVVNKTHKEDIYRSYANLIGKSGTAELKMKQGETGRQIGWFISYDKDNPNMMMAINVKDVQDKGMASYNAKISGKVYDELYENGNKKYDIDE
Protocol: Relative IC50 Assay of Peptide Penicillanate Conjugates
Various concentration of conjugates were prepared by dissolving in reaction buffer (50 mM phosphate, pH=8.0; 100 mM NaCl) and incubating with 2 Vg pure PBP2a respectively at 37° C. for 15 min. 20 μg biotinylated ampicillin was added immediately and incubated at 37° C. for 10 min. The reaction was stopped by heating the reaction mixture at 94° C. for 5 min. The samples were loaded into 12% SDS-PAGE for separation, then were transferred to a nitrocellulose membrane by blotting with sodium bicarbonate buffer (20% methanol; 3 mM Na2CO3; 10 mM NaHCO3) at 400 mA for 3 hr. The membrane was blocked with blocking solution (20 mM Tris, pH=8.0; 150 mM NaCl; 0.05% TWEEN-20 detergent; 5% milk) for 1 hr, then incubated with 10 ml TBS buffer (20 mM Tris, pH=8.0; 150 mM NaCl) containing 1 μg/ml streptavidin-HRP protein (Pierce Chemical) at room temperature for 1 hr. The membrane was washed 6 times with 50 ml TBS buffer, at 5 min intervals, and covered with FEMTO-WESTERN blotting reagent (Pierce Chemical). The membrane was then examined under a digital camera at dark to collect chemiluminescent emission for 10-15 min.

[3] = molecular target: penicillin-binding protein 2a (PBP2a) (Staphylococcus aureus (MRSA)) (UniProt P07944); experiment: relative IC50: conjugate pre-incubated with pure PBP2a 15 min at 37 C, then competition with biotinylated ampicillin, SDS-PAGE and streptavidin-HRP blot
Chain of penicillin-binding protein 2a (PBP2a) (Staphylococcus aureus (MRSA)) (P07944 23-670): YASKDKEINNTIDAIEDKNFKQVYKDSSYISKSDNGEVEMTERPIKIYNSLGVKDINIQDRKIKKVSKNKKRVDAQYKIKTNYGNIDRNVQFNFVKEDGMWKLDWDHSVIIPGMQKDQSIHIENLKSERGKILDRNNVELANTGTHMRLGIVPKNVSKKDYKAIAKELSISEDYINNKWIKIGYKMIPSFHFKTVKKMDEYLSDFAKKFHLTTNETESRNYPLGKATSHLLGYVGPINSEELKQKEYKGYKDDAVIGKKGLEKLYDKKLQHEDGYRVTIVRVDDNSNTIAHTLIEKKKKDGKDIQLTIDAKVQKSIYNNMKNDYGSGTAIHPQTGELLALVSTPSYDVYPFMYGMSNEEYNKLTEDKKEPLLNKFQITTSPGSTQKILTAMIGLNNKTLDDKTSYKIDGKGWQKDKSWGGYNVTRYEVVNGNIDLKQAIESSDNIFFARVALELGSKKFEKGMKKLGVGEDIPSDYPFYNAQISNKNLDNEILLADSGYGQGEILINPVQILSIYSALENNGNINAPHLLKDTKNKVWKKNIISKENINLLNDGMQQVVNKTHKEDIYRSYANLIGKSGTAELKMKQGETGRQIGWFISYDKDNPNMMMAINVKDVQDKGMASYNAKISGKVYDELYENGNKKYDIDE

[4] = molecular target: penicillin-binding protein 2a (PBP2a) (Staphylococcus aureus (MRSA)) (UniProt P07944); experiment: ratio of relative IC50 values against the 6-aminopenicillanic acid reference, biotinylated ampicillin competition on PBP2a
PBP2a [5] = molecular target: T1, PBP2a; conditions: cited from earlier work
[6] = molecular target: penicillin-binding protein 2a (PBP2a) (Staphylococcus aureus (MRSA)) (UniProt P07944); experiment: relative IC50: competition with biotinylated ampicillin for labelling of pure PBP2a, streptavidin-HRP blot
[7] = molecular target: Grb2 N terminal SH3 domain (Homo sapiens, UniProt P62993); conditions: substitution for proline at P2 and P−1; cited from earlier work
Chain of Grb2 N terminal SH3 domain (P62993 1-58 limits assumed): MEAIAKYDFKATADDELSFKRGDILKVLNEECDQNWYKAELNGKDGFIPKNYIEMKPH

[8] = molecular target: Crk N terminal SH3 domain (Homo sapiens, UniProt P46108); conditions: substitution for proline at P2 and P−1; cited from earlier work
Chain of Crk N terminal SH3 domain (P46108 132-192 limits assumed): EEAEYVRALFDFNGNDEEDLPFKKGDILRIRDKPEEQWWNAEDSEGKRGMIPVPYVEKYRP

COc1ccc(C[C@H](N)C(=O)N[C@H]2[C@@H](O)[C@H](n3cnc4c(N(C)C)ncnc43)O[C@@H]2CO)cc1 [puromycin]
Kd [1]: 0.1 mM

CC[C@H](C)[C@H](NC(=O)[C@H](CSCC(=O)N[C@@H]1C(=O)N2[C@@H]1SC(C)(C)[C@@H]2C(=O)O)NC(=O)[C@H](CC(N)=O)NC(=O)[C@H](CO)NC(=O)[C@H](CC(N)=O)NC(=O)[C@H](CCCNC(=N)N)NC(=O)[C@@H](N)CC(C)C)C(=O)N[C@@H](CCCNC(=N)N)C(=O)N[C@@H](Cc1c[nH]cn1)C(=O)N[C@@H](Cc1ccccc1)C(=O)N[C@@H](Cc1ccccc1)C(=O)O [LRNSNC(pen)IRHFF] (H-LRNSNC(X1)IRHFF-OH; N-terminus and C-terminus assumed)
improvement as compared to 6-APA (PBP2a [2]; PBP2a inhibition): about 100 fold

LRNSNC(pen)IRHFF (residues 2-12 of SEQ ID NO: 5) (peptide)
IC50 [3]: 7 mM
fold improvement compared to 6-APA [4]: 100 fold

CC[C@H](C)[C@H](NC(=O)[C@H](CSCC(=O)O)NC(=O)[C@H](CC(N)=O)NC(=O)[C@H](CO)NC(=O)[C@H](CC(N)=O)NC(=O)[C@H](CCCNC(=N)N)NC(=O)[C@@H](N)CC(C)C)C(=O)N[C@@H](CCCNC(=N)N)C(=O)N[C@@H](Cc1c[nH]cn1)C(=O)N[C@@H](Cc1ccccc1)C(=O)N[C@@H](Cc1ccccc1)C(=O)O [unmodified peptide] (H-LRNSNC(Carboxymethyl)IRHFF-OH)
IC50 (PBP2a [2]): > 35 mM

COc1cccc(OC)c1C(=O)N[C@@H]1C(=O)N2[C@@H]1SC(C)(C)[C@@H]2C(=O)O [methicillin]
rate constant for covalent attachment to PBP2a (k2) (PBP2a [5]): 0.0083 s⁻¹

LRNSNC(COOH)IRHFF (residues 2-12 of SEQ ID NO: 5) (peptide)
IC50 [6]: > 35 mM

CC1(C)S[C@@H]2[C@H](NC(=O)Cc3ccccc3)C(=O)N2[C@H]1C(=O)O [benzyl penicillin]
rate constant for covalent attachment to PBP2a (k2) (PBP2a [5]): 0.22 s⁻¹

CNCC(=O)O [N-methyl glycine]
change in the binding [7]: little change
change in the binding [8]: little change

Reference: patent US20030235851A1, “Methods of using sense and/or nonsense suppression to make nucleic acid-peptide display libraries containing peptides with unnatural amino acid residues” (priority 2002, published 2003)
